Test results as given in paper PMC10581189, “Cesin, a short natural variant of nisin, displays potent antimicrobial activity against major pathogens despite lacking two C-terminal macrocycles” (Microbiology Spectrum, 2023).
Converted amounts (≈) assume the structure as drawn. Read-outs that look alike come from different tables or passages of the source. Ends that are not written are not given here.

How the values were obtained:
[1] = tested on: Listeria monocytogenes LK132
[2] = tested on: nisin resistance protein (NSR); conditions: 30 µL 0.1 mg/mL peptide, agar well, L. lactis NZ9000 (pNSR) vs L. lactis NZ9000 (pEmpty); three biological replicates; Fig. 8A
[3] = tested on: Staphylococcus aureus LMG15975 (MRSA)
[4] = biological target: proteinase K (Parengyodontium album, UniProt P06873); assay: Stability against proteinase K (residual antimicrobial activity); conditions: 1 mg/mL proteolytic enzyme (pH 7.2), relative antimicrobial activity against L. lactis MG1363, agar well; three biological replicates; Fig. 8B
proteinase K, sequence (P06873 106-384): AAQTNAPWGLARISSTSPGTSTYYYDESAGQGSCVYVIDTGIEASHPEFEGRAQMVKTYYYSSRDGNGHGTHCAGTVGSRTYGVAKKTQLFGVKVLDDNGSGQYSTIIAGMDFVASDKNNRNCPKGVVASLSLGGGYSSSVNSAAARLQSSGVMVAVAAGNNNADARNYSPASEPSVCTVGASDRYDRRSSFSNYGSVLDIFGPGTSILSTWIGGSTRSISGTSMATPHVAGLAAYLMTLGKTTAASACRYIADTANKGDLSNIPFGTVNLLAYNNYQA

[5] = Thermal stability (residual antimicrobial activity); assay type: physicochemical
Procedure: (§1) An overnight culture of test strains was added at 0.1% (vol/vol) into melted GM17 agar at 45°C and poured in plates. After agar solidification, wells of 8 mm were bored and filled with 30 µL of the lantibiotic solution. When necessary, the lantibiotic was activated with 5 µL of nisP added directly into the well. Peptides were resuspended in 0.05% aqueous acetic acid solution and the cesin amount was determined using the NanoDrop (Thermo Scientific) calibrated with the extinction coefficient predicted by ExPASy (http://web.expasy.org/protparam/). The agar plates were incubated at 30°C overnight, after which, the zones of inhibition were measured. Zone diameters were measured in millimeters and recorded as area of the zone (πr^2) minus the area of the well (πr^2) in millimeters. Where necessary, cesin was compared with nisin and nisin(1–22). Assays were performed in triplicate.

[6] = tested on: Listeria monocytogenes TT82E
[7] = tested on: Enterococcus faecium LMG11423
[8] = tested on: Staphylococcus aureus LMG10147
[9] = tested on: Enterococcus faecium LMG16003 (VRE)
[10] = tested on: Lactococcus lactis MG1363
[11] = tested on: Bacillus cereus CH-85
[12] = tested on: Listeria monocytogenes LMG10470
[13] = tested on: Enterococcus faecalis LMG16216 (VRE)
[14] = tested on: sheep erythrocytes; assay: Hemolytic activity assay; assay type: cell-based; conditions: sheep erythrocytes 2% (vol/vol) in PBS, up to 64 µg/mL, 37°C for 40 min, absorbance 420 nm relative to Triton X-100, triplicate; Fig. 9
Procedure: The hemolytic activity of cesin and nisin was determined as previously described ([65]). Briefly, fresh sheep blood (Sigma-Aldrich) was washed with 0.1 M PBS (pH 7.4; Sigma-Aldrich) three times to remove plasma (500 × g for 5 min), and then the erythrocytes were collected and diluted 1:50 in PBS. The lantibiotics were then added at final concentrations of 64, 32, 16, 8, 4, 2, and 0 µg/mL in PBS to wells containing 2% (vol/vol) washed erythrocytes. The cells were incubated at 37°C for 40 min, then centrifuged for 5 min at 3,100 g. The supernatants were transferred to a 96-well plate, and the absorbance was measured at a wavelength of 420 nm with a Synergy HT microplate reader (BioTek, Lucerne, Switzerland). The absorbance relative to the positive control, which was treated with 0.1% Triton X-100, was defined as the percentage of hemolysis. The analysis was carried out in triplicate.

[15] = tested on: L. lactis MG1363; assay: Agar well diffusion assay of cesin analogs; assay type: cell-based, Lactococcus lactis; conditions: for antimicrobial activity compared to cesin: L. lactis MG1363, 30°C overnight, triplicate, Fig. 5B, 6B, S1
Procedure: as §1

[16] = tested on: E. faecium; assay: Agar well diffusion assay of cesin analogs; assay type: cell-based, Enterococcus faecium; conditions: triplicate, Fig. 5B, S1
Procedure: as §1

Row | Compound | MIC [1] [µg/mL] | resistance to the cleavage action of NSR [2] | MIC [3] [µg/mL] | MIC [6] [µg/mL] | MIC [7] [µg/mL] | MIC [8] [µg/mL] | MIC [9] [µg/mL] | MIC [10] [µg/mL] | MIC [11] [µg/mL] | MIC [12] [µg/mL] | MIC [13] [µg/mL] | antimicrobial activity compared to cesin [15] | antimicrobial activity compared to cesin [16] | other results
1 | C=C1NC(=O)[C@H](Cc2c[nH]c3ccccc23)NC(=O)C(NC(=O)C(=CC)NC(=O)[C@@H](N)[C@@H](C)CC)CSC[C@@H](C(=O)NC2C(=O)N[C@@H](C)C(=O)NCC(=O)N[C@H](C(=O)N[C@H](C(=O)NC3C(=O)NCC(=O)N[C@@H](CCCNC(=N)N)C(=O)N[C@@H]([C@@H](C)CC)C(=O)N[C@@H](CCSC)C(=O)NCC(=O)N[C@H](C(=O)N[C@@H](CC(N)=O)C(=O)N[C@@H](CCCCN)C(=O)O)CSC3C)[C@@H](C)CC)CSC2C)NC(=O)[C@H](CC(C)C)NC1=O (stereo partly shown) [Cesin] | 10.25 (≈ 4.82 µM) | fully resistant | 5.13 (≈ 2.41 µM) | 5.13 (≈ 2.41 µM) | 5.13 (≈ 2.41 µM) | 5.13 (≈ 2.41 µM) | 10.25 (≈ 4.82 µM) | 0.08 (≈ 0.0376 µM) | 20.50 (≈ 9.64 µM) | 2.56 (≈ 1.2 µM) | 5.13 (≈ 2.41 µM) | – | – | stability against proteinase K [4]: more resistant to proteinase K; thermal stability, time stable [5]: stable for up to 4 h
2 | C=C1NC(=O)[C@H]([C@@H](C)CC)NC(=O)C(NC(=O)C(=CC)NC(=O)[C@@H](N)[C@@H](C)CC)CSC[C@@H](C(=O)NC2C(=O)N3CCC[C@H]3C(=O)NCC(=O)N[C@H](C(=O)N[C@@H](CCCCN)C(=O)NC3C(=O)NCC(=O)N[C@@H](C)C(=O)N[C@@H](CC(C)C)C(=O)N[C@@H](CCSC)C(=O)NCC(=O)N[C@H](C(=O)N[C@@H](CC(N)=O)C(=O)N[C@@H](CCSC)C(=O)N[C@@H](CCCCN)C(=O)O)CSC3C)CSC2C)NC(=O)[C@H](CC(C)C)NC1=O (stereo partly shown) [Nisin(1–22), reference compound] | 41.00 (≈ 19.2 µM) | – | 20.50 (≈ 9.58 µM) | 10.25 (≈ 4.79 µM) | 41.00 (≈ 19.2 µM) | 20.50 (≈ 9.58 µM) | >41.00 | 1.28 (≈ 0.598 µM) | >41.00 | 41.00 (≈ 19.2 µM) | >41.00 | – | – | –
3 | C=C(NC(=O)[C@@H](NC(=O)[C@H](Cc1c[nH]cn1)NC(=O)[C@@H](NC(=O)[C@H](CO)NC(=O)[C@@H]1CSC(C)C2NC(=O)[C@H](C)NC(=O)C(NC(=O)[C@H](CCCCN)NC(=O)[C@H](CCSC)NC(=O)[C@H](CC(N)=O)NC(=O)[C@@H]3CSC(C)C(NC(=O)[C@H](CCCCN)NC(=O)[C@@H]4CSC(C)C(NC(=O)[C@@H]5CSCC(NC(=O)C(=CC)NC(=O)[C@@H](N)[C@@H](C)CC)C(=O)N[C@@H]([C@@H](C)CC)C(=O)NC(=C)C(=O)N[C@@H](CC(C)C)C(=O)N5)C(=O)N5CCC[C@H]5C(=O)NCC(=O)N4)C(=O)NCC(=O)N[C@@H](C)C(=O)N[C@@H](CC(C)C)C(=O)N[C@@H](CCSC)C(=O)NCC(=O)N3)C(C)SC[C@H](NC2=O)C(=O)N[C@@H](CC(N)=O)C(=O)N1)[C@@H](C)CC)C(C)C)C(=O)N[C@@H](CCCCN)C(=O)O (stereo partly shown) [Nisin] | – | inactivated | – | – | – | – | – | – | – | – | – | – | – | hemolysis [14]: comparable to that of nisin; thermal stability, time stable ([5]; incubated at 22°C, 55°C, 75°C, 95°C, read-out antimicrobial activity against L. lactis MG1363 (agar well), three biological replicates, Fig. 7A, B): stable for up to 4 h
4 | ITSWSLCTAGCITGRIMGCNKTATCHCSIHVSK (also: bicyclic or more (positions not given here)) [cesin NK, cesin-nisin(23–34) hybrid] | – | – | – | – | – | – | – | – | – | – | – | significant loss of antimicrobial activity | significant loss of antimicrobial activity | –
5 | ITSWSLCTAGCITGRIMGCNMKTATCHCSIHVSK (also: bicyclic or more (positions not given here)) [cesin NMK, cesin(1–20)-nisin(21–34) hybrid] | – | – | – | – | – | – | – | – | – | – | – | significant loss of antimicrobial activity | significant loss of antimicrobial activity | antimicrobial activity compared to cesin NK ([15]; Fig. 5B (L. lactis MG1363 and E. faecium, sentence names no strain)): significantly higher antimicrobial activity
